Test results reported in the NIST ThermoML archive (doi:10.1021/acs.jced.5b00816).

What was measured:
[1] = molar heat capacity at constant pressure; conditions: 101.33 kPa
[2] = Molar enthalpy of transition or fusion; conditions: Crystal
[3] = Solid-liquid equilibrium temperature; conditions: 101 kPa; Crystal; DTA

CNC[C@H](O)[C@@H](O)[C@H](O)[C@H](O)CO [(2R,3R,4R,5S)-6-(methylamino)hexane-1,2,3,4,5-pentaol]
molar heat capacity at constant pressure [J/K/mol], [1]
Conditions | Crystal | Metastable liquid
290 K | 322 | –
295 K | 327 | –
300 K | 333 | –
305 K | 338 | –
310 K | 343 | –
315 K | 348 | –
320 K | 353 | –
325 K | 358 | –
330 K | 362 | –
335 K | 367 | –
340 K | 372 | –
345 K | 377 | –
350 K | 382 | –
355 K | 387 | –
360 K | 392 | –
365 K | 396 | –
370 K | 401 | –
375 K | 406 | –
380 K | 411 | 662
385 K | – | 664
390 K | – | 666
395 K | – | 668
400 K | – | 670
405 K | – | 671
410 K | – | 672
415 K | – | 673
420 K | – | 673
425 K | – | 674
430 K | – | 676
435 K | – | 678
440 K | – | 678

Conditions | Molar enthalpy of transition or fusion [kcal/mol] | Solid-liquid equilibrium temperature [K]
[2] | 12.3 | –
[3] | – | 400.9
